Assay [1] has as its target T1, AdipoR2 (Homo sapiens, UniProt Q86V24).
T1 construct: expressed in transfected cells; host or cells: Chinese Hamster Ovary cells (ECACC 85050302), transient transfection with Lipofectamine LTX
T1 sequence (Q86V24 1-386): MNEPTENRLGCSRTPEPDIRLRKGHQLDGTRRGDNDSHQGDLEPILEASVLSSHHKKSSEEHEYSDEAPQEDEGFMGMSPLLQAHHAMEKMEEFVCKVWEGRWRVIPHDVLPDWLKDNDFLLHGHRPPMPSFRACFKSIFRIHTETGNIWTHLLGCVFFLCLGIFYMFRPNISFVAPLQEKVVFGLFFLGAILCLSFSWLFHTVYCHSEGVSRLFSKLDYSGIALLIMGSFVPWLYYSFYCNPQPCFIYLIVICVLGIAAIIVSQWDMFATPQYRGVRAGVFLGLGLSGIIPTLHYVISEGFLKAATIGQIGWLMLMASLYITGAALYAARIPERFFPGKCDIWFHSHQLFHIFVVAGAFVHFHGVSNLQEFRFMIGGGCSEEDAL
As to the kind of experiment: Radio-ligand saturation binding assay with 125I-ULMA, CHO cells transfected with AdipoR2. The method, then:
D. CHO cells transfected with empty vector or AdipoR1 or R2 expression vectors were incubated with various concentrations of ^125I-ULMA for 2 h at 4° C. Following washes, cells were lysed and count per minute was analyzed in a gamma counter. 200 fold molar excess of unlabeled ULMA was used for each concentration of radiolabeled ULMA for determining nonspecific activity. Count per minutes were normalized with total cellular protein content followed by further normalization with non-specific activity and plotted. Data is mean±SEM from three experiments performed in triplicates.
Further validation of AdipoR-ULMA interaction and its quantitation was done using a radio-ligand saturation binding assay using ^125I-ULMA. ULMA was first radiolabeled using chloramines-T method. 10 μl of ^125I (20 MBq; BARC, Mumbai, India) was added to 100 μg GTDF in 5% acetic acid/methanol, then chloramine-T (Sigma, 4 μg in MilliQ H2O) was added, and the mixture was allowed to react at room temperature (24° C.) for 5 min. […] was used for protein estimation using standard Bradford assay and rest of the lysate was used for measuring radioactivity in a gamma-counter (Cole Palmer). The count per minute was normalized with protein concentration and was further normalized with non specific binding, which was determined for every concentration of ^125I-ULMA, using 200 fold molar excess of unlabeled ULMA.

Assay [2] has as its system C2C12 myotubes. The assay is described as follows: Glucose uptake assay (3H-deoxyglucose) in C2C12 myotubes. Conditions: 10 nM. Format: cell-based, mouse. The protocol:
A. ULMA enhances glucose uptake in C2C12 myotubes. C2C12 myotubes in 24 well plates were treated with vehicle (DMSO) or 10 nM ULMA and glucose uptake assay was performed in presence or absence of 100 nM insulin. Data is mean±SEM of six independent experiments performed in triplicates. *p<0.05, **p<0.01, ***p<0.001 as determined by two tailed unpaired student's t-test.
C. siAdipoR1 eliminates ULMA induction of glucose uptake. C2C12 myotubes were transfected with nonsilencing siC or siAdipoR1. 72 h after transfection, cells were treated for 24 h with 10 nM ULMA and glucose uptake assay was performed. Data is mean±SEM of three independent experiments performed in triplicates. ***p<0.001 as determined by two tailed unpaired student's t-test.
Adiponectin is known to enhance glucose uptake and fatty acid oxidation in skeletal muscle and myotubes (T. Kadowaki, T. Yamauchi, N. Kubota, K. Hara, K. Ueki, K. Tobe. J Clin Invest. 116(7): 1784-1792. 2006; T. Yamauchi, J. Kamon, Y. Ito, A. Tsuchida, T. Yokomizok, S. Kita, T. Sugiyama, M. Miyagishi, K. Hara, M. Tsunodaq, K. Murakamiq, T. Ohteki, S. Uchida, S. Takekawa, H. Waki, N. H. Tsuno, Y. Shibata, Y. Terauchi, P. Froguel, K. Tobe, S. Koyasu, K. Taira, T. Kitamura, T. Shimizuk, R. Nagai, T. Kadowaki. Nature. 423(6941):762-769. 2003). Therefore the ability of ULMA to influence insulin-dependent and independent glucose uptake and fatty acid oxidation was investigated in C2C12 myotubes. […] Subsequently, the cells were lysed in 100 μl 0.5N NaOH and 5 μl lysate was used for protein concentration determination, and rest of the lysate was used to measure cellular radioactivity in a beta-counter (Beckman Coulter). […] Radioactivity that had become adsorbed onto the filter discs was then quantified by liquid scintillation counting in a beta-counter (Beckman Coulter). The cells were lysed with 200 μl 0.5N NaOH and 5 μl of the lysate was used for protein estimation using Bradford assay and the radioactivity was normalized with the protein content.

Consider one compound from patent US20160193240A1, “Ulmoside-A: Useful For Prevention Or Cure Of Metabolic Diseases” (COUNCIL OF SCIENTIFIC & INDUSTRIAL RESEARCH, priority 2013, published 2016).

pKd: −log10 of the molar value.

In general, pKd refers to the negative decadic logarithm of the Kd, by convention in mol/L. Consider `O=C1c2c(cc(O)c([C@@H]3O[C@H](CO)[C@@H](O)[C@H](O)[C@H]3O)c2O)O[C@@H](c2ccc(O)c(O)c2)[C@@H]1O` [ULMA, (2S,3S)-(+)-3′,4′,5,7-tetrahydroxydihydroflavonol-6-C-β-D-glucopyranoside], for which the “maximum binding (BMAX)” value in assay [1] was 3950 fmol/mg of protein. Moreover, the pKd in assay [1] (2 hours, ice cold, read-out: dissociation constant (Kd)) is 6.49. Further, in assay [2] (24 h, 72 h after siRNA transfection), the “ULMA-induced glucose uptake with siAdipoR1 (not siC)” value is given as “completely eliminated”. For the same compound, the “glucose uptake in absence of insulin” value in assay [2] (24 hours) was “enhanced”. Besides, the “glucose uptake in presence of insulin” value in assay [2] (24 hours, 100 nM insulin 20 min) is recorded as “enhanced”.
